According to article PMC11640089, “JRM-28, a Novel HDAC2 Inhibitor, Upregulates Plasticity-Associated Proteins in Hippocampal Neurons and Enhances Morphological Plasticity via Activation of CREB: Implications for Alzheimer’s Disease” (Cells, 2024):

Key:
iPSC-derived AD neurons = assay: NMDA/AMPA-driven calcium entry assay in iPSC-derived AD neurons; format: cell-based, human
Procedure: Mouse primary hippocampal neurons and AD neurons were loaded with Fluo4-fluorescence conjugated calcium dye (Invitrogen Molecular Probes, Cat #F10471) and incubated at 37 °C for 60 min, as described before. Briefly, fluorescence excitation and emission spectra were recorded in a Perkin–Elmer Victor X2 Fluorimetric Spectrometer (Versiti Blood Center, Wauwatosa, WI, USA) in the presence of 50 μM NMDA and AMPA solutions. The recording was performed with 100 repeats at 0.1 ms intervals. The oscillogram was generated with the help of Parkin Elmer 2030 software that was connected to the Victor X2 calcium recorder unit. The real-time calcium noise graph was generated as a kinetic chart plotted on a linear scale.

HDAC2 [1] = molecular target: T1, HDAC2 (Homo sapiens, UniProt Q92769); assay: Endogenous HDAC2 activity assay (luminescence) in SHSY5Y cells; format: cell-based; parameters: endogenous in cells; host or cells: SHSY5Y; conditions: not reduced by DTT; 30 min of treatment
T1 sequence (Q92769 whole entry): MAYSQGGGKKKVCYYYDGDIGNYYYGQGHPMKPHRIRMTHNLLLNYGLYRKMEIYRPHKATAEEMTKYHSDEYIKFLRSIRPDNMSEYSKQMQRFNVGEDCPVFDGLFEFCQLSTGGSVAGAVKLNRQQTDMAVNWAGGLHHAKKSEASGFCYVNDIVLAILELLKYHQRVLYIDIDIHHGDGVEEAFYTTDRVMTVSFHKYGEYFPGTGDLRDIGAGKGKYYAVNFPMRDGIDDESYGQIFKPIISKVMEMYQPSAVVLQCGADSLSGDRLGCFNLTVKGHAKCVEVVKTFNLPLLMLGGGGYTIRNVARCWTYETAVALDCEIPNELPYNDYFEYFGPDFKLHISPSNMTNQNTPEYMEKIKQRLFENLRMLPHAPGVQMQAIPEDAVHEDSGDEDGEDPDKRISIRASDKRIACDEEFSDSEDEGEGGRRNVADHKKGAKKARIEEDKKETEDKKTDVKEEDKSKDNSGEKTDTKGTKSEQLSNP
Procedure: Next, JRM-28 in the presence of DTT was evaluated by cytotoxicity assays. A TUNEL assay was performed with SHSY5Y neuronal cells using increasing concentrations of JRM-28 in the presence of DTT. […] The results were further confirmed by quantitative analysis (Figure 4B). […] Next, we wanted to study the effect of lower concentrations of […] on the regulation of HDAC2 activity. […] To further confirm this finding, we performed a luminescence-based HDAC2 activity assay in SHSY5Y cells with increasing doses of JRM-28. JRM-28 was not reduced by DTT during the treatment, as the cellular reductase and oxidoreductase enzymes are expected to reduce JRM-28 in its “active 28a/b” components. […]
Figure 4 Exploring the cytotoxicity of JRM-28. SHSY5Y neurons were treated with different doses of JRM-28 for 24 h and then analyzed for different cytotoxicity assays. […] TUNEL^+ve cells were detected as condensed brown bodies, whereas nuclei were stained with hematoxylin (blue). (B) TUNEL bodies were counted per 10 randomly selected cells in 20 different images. Results were plotted as a dotted boxplot, and the significance of the mean was analyzed by one-way ANOVA (single effector = treatment). **** p < 0.00001 versus DMSO control. […] (E) The band density of individual HDAC2 bands was assessed in ImageJ software (version 1.45) followed by normalization with respective β-actin band density. […]

HDAC2 [2] = molecular target: T1, HDAC2; assay: HDAC2 inhibition assay, luminometric method (HDAC-Glo I/II); format: biochemical; parameters: purchased BPS Bioscience 50002; conditions: for IC50: HDAC2 0.5 nM, read-out: IC50 HDAC2 inhibition (luminescence)
Procedure: HDAC2 inhibition assay was performed by either the luminometric or fluorimetric method applying the following procedures. The table (Table 1) represents the details of different HDAC proteins and antibodies used in all biochemical assays.
HDAC2 inhibition assay was performed by HDAC-Glo™ I/II Assays and Screening System (Catalog# G6420, Promega Corporation, Madison, WI, USA) by the luminometric method according to the manufacturer’s protocol. […] The HDAC-2 inhibition assay was performed as previously described to determine IC values. In brief, the purified HDAC2 was diluted in HDAC assay buffer (provided with the HDAC-Glo™ I/II Assays and Screening System) to the same concentration based on their calculated molar mass. […] Next, 10 µL of JRM-28 after serial dilution was added to 10 µL of diluted HDAC2 in such a way that the final HDAC2 concentration was 0.5 nM in each well of a 384-well microplate (Greiner, Kremsmünster, Austria). After 30 min of incubation, 20 µL of the HDAC-Glo substrate/developing reagent was added to each well according to the manufacturer’s instructions. The 384-well plate was then agitated on an orbital shaker for the mixing of components in each well for another 30 min at room temperature. Finally, luminescence was measured using a POLARstar Omega plate reader (BMG Labtech, Ortenberg, Germany).

SHSY5Y cells = assay: Lactate dehydrogenase (LDH) release cytotoxicity assay; format: cell-based, human; conditions: 24 h
Procedure: Lactate dehydrogenase (LDH) cell cytotoxicity assay was performed per the manufacturer’s protocol. Briefly, SHSY5Y cells were grown in a 96-well plate with up to 70% confluency followed by treatment with increasing doses of JRM-28 under serum-free conditions. Serially diluted JRM-28 was used in a concentration range from 75 nM to 50 μM. As a control, serially diluted DMSO controls were added. After 24 h, supernatants were harvested by a multi-channel pipette and then assessed for LDH release with CyQUANT™ LDH Cytotoxicity Assay Kit. Briefly, 50 μL of supernatant was incubated with an equal volume of the working reaction mixture (generated after combining the 600 µL of assay buffer Stock Solution with the 11.4 mL of Substrate Stock substrate mix), incubated at room temperature for 30 min protected from light, terminated by 50 μL of stop solution, and then measured at 490 nm using a microplate absorbance spectrophotometer (Perkin Elmer Enspire 2300 Multilabel Multimode Microplate Reader). The percentage of cytotoxicity was determined following the formula provided with the LDH assay kit and then converted to relative cell cytotoxicity.

IC50 (HDAC2 [1]): 5440 nM | IC50 (HDAC2 [2]; in the presence of DTT (reduced)): 280 nM | increase of HDAC2 inhibitory effect by addition of DTT (HDAC2 [2]; with DTT versus without DTT): ~200 fold | IC50 (HDAC2 [2]; without DTT (non-reduced dimer)): 54900 nM
Compound: CN(C(=O)CC(O)/C=C/CCSS(=O)(=O)CC/C=C/C(O)CC(=O)N(C)c1ccccc1)c1ccccc1 (stereo not drawn) [JRM-28, S-((E)-5-hydroxy-7-(methyl(phenyl)amino)-7-oxohept-3-en-1-yl) (E)-5-hydroxy-7-(methyl(phenyl)amino)-7-oxohept-3-ene-1-sulfonothioate]
AMPA-driven calcium influx (iPSC-derived AD neurons; 5 µM): strong AMPA-driven calcium influx | NMDA-driven calcium entry (iPSC-derived AD neurons; 5 µM): significantly high | concentration of maximum NMDA-driven calcium entry (iPSC-derived AD neurons; 2, 5, and 10 µM tested): 10 µM | NMDA- and AMPA-induced calcium entry after creb siRNA (iPSC-derived AD neurons; creb siRNA-transfected AD neurons): strongly attenuated | LDH release (SHSY5Y cells; 30 µM and 50 µM): significantly induced LDH release | LDH release (SHSY5Y cells; concentrations lower than 30 µM): but not lower concentrations of JRM-28, significantly induced LDH release
